Tests used:
[1] = molecular target: T1, Tyrosine-protein kinase JAK2 (Homo sapiens, UniProt O60674); experiment: Inhibition of JAK2 (unknown origin) using Poly-(Glu,Tyr 4:1) peptide as substrate at 1 uM in presence of ATP by ADP-Glo reagent based assay relative to control
MCF7 = experiment: cells; conditions: Homo sapiens, MCF7, 48 h
Description: Antiproliferative activity against human MCF7 cells assessed as cell growth inhibition incubated for 48 hrs by MTT assay

[2] = Cytotoxicity against human ARPE-19 cells assessed as cell growth inhibition incubated for 48 hrs by MTT assay; type: toxicity, cell-based
BXPC-3 = experiment: Antiproliferative activity against human BXPC-3 cells assessed as cell growth inhibition incubated for 48 hrs by MTT assay; type: functional, cell-based; conditions: BXPC-3, 48 h
A549 [3] = experiment: Induction of apoptosis in human A549 cells assessed as necrotic cells at 50 nM incubated for 24 hrs by Annexin V-FITC/PI staining based flow cytometry (reference value: 0.67 %); type: functional
A549 [4] = experiment: Induction of apoptosis in human A549 cells assessed as viable cells at 50 nM incubated for 24 hrs by Annexin V-FITC/PI staining based flow cytometry (reference value: 93 %); type: functional; conditions: read-out: Activity
PC-3 = experiment: Antiproliferative activity against human PC-3 cells assessed as cell growth inhibition incubated for 48 hrs by MTT assay; type: functional, cell-based; conditions: PC-3, 48 h
[5] = Antiproliferative activity against Chinese hamster CHO cells assessed as cell growth inhibition incubated for 48 hrs by MTT assay; type: toxicity, cell-based, Cricetulus griseus
[6] = Cytotoxicity against human L02 cells assessed as cell growth inhibition incubated for 48 hrs by MTT assay; type: toxicity, cell-based
[7] = Cytotoxicity against human HaCaT cells assessed as cell growth inhibition incubated for 48 hrs by MTT assay; type: toxicity, cell-based
HT-29 = experiment: Antiproliferative activity against human HT-29 cells assessed as cell growth inhibition incubated for 48 hrs by MTT assay; type: functional, cell-based; conditions: HT-29, 48 h
A549 [8] = experiment: Induction of mitochondrial membrane potential loss in human A549 cells by measuring green fluorescence at 50 nM incubated for 16 hrs by JC-1 staining based flow cytometry analysis (reference value: 0.7 %); type: functional
A549 [9] = experiment: Antiproliferative activity against human A549 cells assessed as cell growth inhibition incubated for 48 hrs by MTT assay; type: functional, cell-based; conditions: A549, 48 h
CWR22R = experiment: Cytotoxicity against human 22Rv1 cells assessed as cell growth inhibition incubated for 48 hrs by MTT assay; type: functional, cell-based; conditions: 22Rv1, 48 h
[10] = Antiproliferative activity against Chinese hamster CHO-K1 cells assessed as cell growth inhibition incubated for 48 hrs by MTT assay; type: toxicity, cell-based, Cricetulus griseus
A549 [11] = experiment: Induction of apoptosis in human A549 cells assessed as late apoptotic cells at 50 nM incubated for 24 hrs by Annexin V-FITC/PI staining based flow cytometry (reference value: 1.72 %); type: functional
COLO 205 = experiment: Cytotoxicity against human COLO 205 cells assessed as cell growth inhibition incubated for 48 hrs by MTT assay; type: functional, cell-based; conditions: COLO 205, 48 h
A549 [12] = experiment: Induction of apoptosis in human A549 cells assessed as early apoptotic cells at 50 nM incubated for 24 hrs by Annexin V-FITC/PI staining based flow cytometry (reference value: 4.61 %); type: functional
HepG2 = experiment: Cytotoxicity against human HepG2 cells assessed as cell growth inhibition incubated for 48 hrs by MTT assay; type: functional, cell-based; conditions: HepG2, 48 h
A549 [13] = experiment: Induction of mitochondrial membrane potential loss in human A549 cells by measuring red fluorescence at 50 nM incubated for 16 hrs by JC-1 staining based flow cytometry analysis (reference value: 99.3 %); type: functional
HeLa = experiment: Antiproliferative activity against human HeLa cells assessed as cell growth inhibition incubated for 48 hrs by MTT assay; type: functional, cell-based
[14] = Antiproliferative activity against human HCT-8/VCR cells assessed as cell growth inhibition incubated for 48 hrs by MTT assay; type: functional, cell-based
A2780/Taxol = experiment: Antiproliferative activity against human A2780T cells assessed as cell growth inhibition incubated for 48 hrs by MTT assay; type: functional, cell-based
[15] = Metabolic stability in mouse liver microsomes assessed as half life incubated for 10 mins in presence of NADPH by LC-MS/MS analysis; type: ADME, Microsome
A2780 = experiment: Antiproliferative activity against human A2780 cells assessed as cell growth inhibition incubated for 48 hrs by MTT assay; type: functional, cell-based; conditions: A2780, 48 h
A549 [16] = experiment: Induction of mitochondrial membrane potential loss in human A549 cells by measuring red fluorescence at 500 nM incubated for 16 hrs by JC-1 staining based flow cytometry analysis (reference value: 99.3 %); type: functional
A549 [17] = experiment: Induction of apoptosis in human A549 cells assessed as necrotic cells at 500 nM incubated for 24 hrs by Annexin V-FITC/PI staining based flow cytometry (reference value: 0.67 %); type: functional
A549 [18] = experiment: Induction of mitochondrial membrane potential loss in human A549 cells by measuring green fluorescence at 500 nM incubated for 16 hrs by JC-1 staining based flow cytometry analysis (reference value: 0.7 %); type: functional
NCI/ADR-RES = experiment: cells; conditions: Homo sapiens, 48 h
Description: Antiproliferative activity against human MCF7ADR cells assessed as cell growth inhibition incubated for 48 hrs by MTT assay

[19] = molecular target: Tyrosine-protein kinase JAK1 (Homo sapiens, UniProt P23458); experiment: Inhibition of JAK1 (unknown origin) using Poly-(Glu,Tyr 4:1) peptide as substrate in presence of ATP by ADP-Glo reagent based assay
Chain of Tyrosine-protein kinase JAK1 (P23458 whole entry): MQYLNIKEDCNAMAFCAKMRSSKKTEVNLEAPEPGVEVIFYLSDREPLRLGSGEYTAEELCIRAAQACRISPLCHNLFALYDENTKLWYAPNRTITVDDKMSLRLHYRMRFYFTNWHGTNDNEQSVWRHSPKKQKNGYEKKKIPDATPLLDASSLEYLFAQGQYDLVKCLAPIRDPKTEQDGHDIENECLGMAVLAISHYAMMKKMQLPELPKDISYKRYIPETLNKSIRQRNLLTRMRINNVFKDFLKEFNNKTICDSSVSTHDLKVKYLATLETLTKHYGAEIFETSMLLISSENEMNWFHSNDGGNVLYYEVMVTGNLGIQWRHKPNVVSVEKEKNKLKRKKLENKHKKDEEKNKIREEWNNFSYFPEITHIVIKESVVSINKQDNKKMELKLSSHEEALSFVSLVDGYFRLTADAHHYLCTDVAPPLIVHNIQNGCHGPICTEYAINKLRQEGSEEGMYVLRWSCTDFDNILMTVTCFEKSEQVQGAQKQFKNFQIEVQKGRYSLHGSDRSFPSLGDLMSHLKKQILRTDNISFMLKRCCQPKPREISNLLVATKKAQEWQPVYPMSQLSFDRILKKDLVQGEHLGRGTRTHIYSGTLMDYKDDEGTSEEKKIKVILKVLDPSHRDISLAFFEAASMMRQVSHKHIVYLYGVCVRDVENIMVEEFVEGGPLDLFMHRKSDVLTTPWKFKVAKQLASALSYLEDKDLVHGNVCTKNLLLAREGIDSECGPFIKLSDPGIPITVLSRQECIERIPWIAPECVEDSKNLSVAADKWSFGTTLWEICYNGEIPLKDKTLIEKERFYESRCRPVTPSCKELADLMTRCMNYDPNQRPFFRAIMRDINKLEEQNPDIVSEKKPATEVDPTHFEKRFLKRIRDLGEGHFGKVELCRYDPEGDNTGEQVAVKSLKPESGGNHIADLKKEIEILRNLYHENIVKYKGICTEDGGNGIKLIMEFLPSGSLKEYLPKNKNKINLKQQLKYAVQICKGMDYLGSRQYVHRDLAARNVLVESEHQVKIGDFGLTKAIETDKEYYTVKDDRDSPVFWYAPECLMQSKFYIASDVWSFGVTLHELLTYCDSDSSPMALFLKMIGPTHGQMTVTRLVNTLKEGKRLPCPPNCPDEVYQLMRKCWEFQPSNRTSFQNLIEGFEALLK

A549 [20] = experiment: Induction of apoptosis in human A549 cells assessed as late apoptotic cells at 500 nM incubated for 24 hrs by Annexin V-FITC/PI staining based flow cytometry (reference value: 1.72 %); type: functional
KP-4 = experiment: Antiproliferative activity against human KP-4 cells assessed as cell growth inhibition incubated for 48 hrs by MTT assay; type: functional, cell-based; conditions: KP-4, 48 h
A549 [21] = experiment: Induction of apoptosis in human A549 cells assessed as viable cells at 500 nM incubated for 24 hrs by Annexin V-FITC/PI staining based flow cytometry (reference value: 93 %); type: functional; conditions: read-out: Activity
[22] = molecular target: T1, Tyrosine-protein kinase JAK2; experiment: Inhibition of JAK2 (unknown origin) using Poly-(Glu,Tyr 4:1) peptide as substrate in presence of ATP by ADP-Glo reagent based assay
A549 [23] = experiment: Induction of apoptosis in human A549 cells assessed as early apoptotic cells at 500 nM incubated for 24 hrs by Annexin V-FITC/PI staining based flow cytometry (reference value: 4.61 %); type: functional
[24] = Antiproliferative activity against human A549/DDP cells assessed as cell growth inhibition incubated for 48 hrs by MTT assay; type: functional, cell-based
HCT-8 = experiment: Antiproliferative activity against human HCT-8 cells assessed as cell growth inhibition incubated for 48 hrs by MTT assay; type: functional, cell-based; conditions: HCT-8, 48 h

T1 sequence (O60674 whole entry): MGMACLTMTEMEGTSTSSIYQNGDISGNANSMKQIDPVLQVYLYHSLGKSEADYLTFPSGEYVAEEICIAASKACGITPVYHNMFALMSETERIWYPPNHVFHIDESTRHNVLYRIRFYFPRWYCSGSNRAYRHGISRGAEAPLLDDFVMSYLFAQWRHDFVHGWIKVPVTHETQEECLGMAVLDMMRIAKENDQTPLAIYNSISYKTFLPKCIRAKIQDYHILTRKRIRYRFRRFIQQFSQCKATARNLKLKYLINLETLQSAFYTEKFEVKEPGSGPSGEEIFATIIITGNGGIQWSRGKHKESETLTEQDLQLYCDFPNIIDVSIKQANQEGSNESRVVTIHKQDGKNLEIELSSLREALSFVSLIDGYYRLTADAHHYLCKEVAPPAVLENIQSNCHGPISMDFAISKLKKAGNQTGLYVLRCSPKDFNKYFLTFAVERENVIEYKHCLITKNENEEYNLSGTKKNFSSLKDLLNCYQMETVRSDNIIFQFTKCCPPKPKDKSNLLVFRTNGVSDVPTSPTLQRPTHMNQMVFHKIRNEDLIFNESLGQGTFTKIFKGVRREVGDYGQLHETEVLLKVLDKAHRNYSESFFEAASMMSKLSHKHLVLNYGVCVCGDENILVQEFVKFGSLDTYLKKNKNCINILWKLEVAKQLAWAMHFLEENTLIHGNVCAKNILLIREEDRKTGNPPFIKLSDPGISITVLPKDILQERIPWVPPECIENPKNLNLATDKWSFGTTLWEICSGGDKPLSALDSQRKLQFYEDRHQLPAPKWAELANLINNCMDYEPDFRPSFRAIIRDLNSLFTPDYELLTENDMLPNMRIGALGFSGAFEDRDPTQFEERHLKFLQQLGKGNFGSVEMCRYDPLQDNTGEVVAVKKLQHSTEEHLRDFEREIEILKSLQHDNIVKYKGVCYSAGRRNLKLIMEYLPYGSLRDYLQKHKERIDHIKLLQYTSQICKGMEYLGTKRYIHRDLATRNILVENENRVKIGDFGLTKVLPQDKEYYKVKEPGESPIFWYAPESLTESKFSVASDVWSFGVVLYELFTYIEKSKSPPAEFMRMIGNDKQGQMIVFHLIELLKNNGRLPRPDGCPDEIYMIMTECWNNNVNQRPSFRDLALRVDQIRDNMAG

COc1cc2c(c(OC)c1OC)-c1ccc(OC)c(=O)cc1[C@@H](NC(C)=O)CC2 [COLCHICINE]
inhibition [1]: 5.7%
IC50 (MCF7): 46 nM
IC50 at 48 h [2]: 21.8 nM
IC50 (BXPC-3): 41 nM
Activity (A549 [3]): 3.6%
viability at 0.05 µM (A549 [4]): 57%
IC50 (PC-3): 0.079 µM
IC50 at 48 h [5]: 697 nM
IC50 at 48 h [6]: 269 nM
IC50 at 48 h [7]: 9.3 nM
IC50 (HT-29): 31 nM
Activity (A549 [8]): 0.1%
IC50 (A549 [9]): 64 nM
IC50 (CWR22R): 18 nM
IC50 at 48 h [10]: 9.2 µM
Activity (A549 [11]): 24.1%
IC50 (COLO 205): 12.8 nM
Activity (A549 [12]): 15.3%
IC50 (HepG2): 75 nM
Activity (A549 [13]): 93.9%

CN1CCN(c2cccc(Nc3nc4c(-c5ccc(S(C)(=O)=O)cc5)cccn4n3)c2)CC1
inhibition [1]: 99%
IC50 (MCF7): 1230 nM
IC50 (HeLa): 1260 nM
IC50 at 48 h [2]: 4930 nM
IC50 (BXPC-3): 730 nM
IC50 [14]: 5.78 µM
IC50 (A2780/Taxol): 394 nM
half-life [15]: 13.1 min
IC50 (PC-3): 15.1 µM
IC50 (A2780): 289 nM
Activity (A549 [16]): 96.5%
IC50 at 48 h [5]: 172 nM
Activity (A549 [17]): 2.8%
Activity (A549 [18]): 3.5%
IC50 at 48 h [6]: 388 nM
IC50 at 48 h [7]: 2830 nM
IC50 (HT-29): 961 nM
IC50 (NCI/ADR-RES): 3.53 µM
IC50 (A549 [9]): 358 nM
IC50 [19]: 12 nM
IC50 (CWR22R): 5790 nM
IC50 at 48 h [10]: 0.216 µM
Activity (A549 [20]): 16.6%
IC50 (KP-4): 372 nM
viability at 0.5 µM (A549 [21]): 65.7%
IC50 [22]: 6 nM
IC50 (COLO 205): 1550 nM
Activity (A549 [23]): 14.9%
IC50 [24]: 1530 nM
IC50 (HCT-8): 1140 nM
IC50 (HepG2): 2040 nM

Reference: ChEMBL document CHEMBL5390242, “Design, Synthesis, and Antitumor Efficacy of Substituted 2-Amino[1,2,4]triazolopyrimidines and Related Heterocycles as Dual Inhibitors for Microtubule Polymerization and Janus Kinase 2” (J Med Chem, 2023)
